Assay results taken from ChEMBL document CHEMBL1138590, “Discovery of novel dihydro-9,10-ethano-anthracene carboxamides as glucocorticoid receptor modulators” (Bioorg Med Chem Lett, 2009).

Legend:
[1] = biological target: T1, Glucocorticoid receptor (Homo sapiens, UniProt P04150); assay: Transrepression activity at GR in PMA-stimulated human A549 cells assessed as inhibition of AP1 response element-induced luciferase reporter gene activity; assay type: cell-based
T1 sequence (P04150 whole entry): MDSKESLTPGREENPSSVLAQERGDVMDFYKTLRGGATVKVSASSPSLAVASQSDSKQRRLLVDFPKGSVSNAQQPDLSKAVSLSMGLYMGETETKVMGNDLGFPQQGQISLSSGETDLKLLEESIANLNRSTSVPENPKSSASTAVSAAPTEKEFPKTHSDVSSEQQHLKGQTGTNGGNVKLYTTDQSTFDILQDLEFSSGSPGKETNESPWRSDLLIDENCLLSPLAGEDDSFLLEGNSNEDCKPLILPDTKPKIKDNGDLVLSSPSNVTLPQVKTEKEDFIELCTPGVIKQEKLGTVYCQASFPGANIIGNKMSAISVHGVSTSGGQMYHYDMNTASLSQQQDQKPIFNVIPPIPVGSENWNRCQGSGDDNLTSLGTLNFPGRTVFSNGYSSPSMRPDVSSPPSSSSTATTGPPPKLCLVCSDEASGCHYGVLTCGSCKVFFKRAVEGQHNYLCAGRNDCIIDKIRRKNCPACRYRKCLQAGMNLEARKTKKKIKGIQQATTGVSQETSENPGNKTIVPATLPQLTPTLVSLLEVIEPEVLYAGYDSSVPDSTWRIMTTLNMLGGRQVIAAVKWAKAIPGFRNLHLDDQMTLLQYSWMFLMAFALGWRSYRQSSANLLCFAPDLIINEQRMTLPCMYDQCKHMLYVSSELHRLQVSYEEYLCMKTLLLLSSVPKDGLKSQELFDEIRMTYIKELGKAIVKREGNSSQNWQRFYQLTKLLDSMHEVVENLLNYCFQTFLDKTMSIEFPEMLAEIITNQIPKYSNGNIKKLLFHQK

[2] = biological target: T1, Glucocorticoid receptor; assay: Agonist activity at GR ligand binding domain expressed in human NP1 cells assessed as glucocorticoid response element transactivation by GAL4 luciferase reporter gene assay; assay type: cell-based
[3] = biological target: T1, Glucocorticoid receptor; assay: Transrepression activity at GR in IL-1-beta-stimulated human A549 cells assessed as inhibition of NF-kappaB-dependent E-selectin transcription by luciferase reporter gene assay; assay type: cell-based
[4] = biological target: T1, Glucocorticoid receptor; assay: Displacement of FITC-dexamethasone from human recombinant glucocorticoid receptor alpha by fluorescence polarization assay
[5] = biological target: T2, Mineralocorticoid receptor (Homo sapiens) (UniProt P08235); assay: Antagonist activity at mineralocorticoid receptor in human A549 cells assessed as inhibition of 1.25 nM aldosterone-induced effect at 0.1 uM; assay type: functional, cell-based
T2 sequence (whole entry): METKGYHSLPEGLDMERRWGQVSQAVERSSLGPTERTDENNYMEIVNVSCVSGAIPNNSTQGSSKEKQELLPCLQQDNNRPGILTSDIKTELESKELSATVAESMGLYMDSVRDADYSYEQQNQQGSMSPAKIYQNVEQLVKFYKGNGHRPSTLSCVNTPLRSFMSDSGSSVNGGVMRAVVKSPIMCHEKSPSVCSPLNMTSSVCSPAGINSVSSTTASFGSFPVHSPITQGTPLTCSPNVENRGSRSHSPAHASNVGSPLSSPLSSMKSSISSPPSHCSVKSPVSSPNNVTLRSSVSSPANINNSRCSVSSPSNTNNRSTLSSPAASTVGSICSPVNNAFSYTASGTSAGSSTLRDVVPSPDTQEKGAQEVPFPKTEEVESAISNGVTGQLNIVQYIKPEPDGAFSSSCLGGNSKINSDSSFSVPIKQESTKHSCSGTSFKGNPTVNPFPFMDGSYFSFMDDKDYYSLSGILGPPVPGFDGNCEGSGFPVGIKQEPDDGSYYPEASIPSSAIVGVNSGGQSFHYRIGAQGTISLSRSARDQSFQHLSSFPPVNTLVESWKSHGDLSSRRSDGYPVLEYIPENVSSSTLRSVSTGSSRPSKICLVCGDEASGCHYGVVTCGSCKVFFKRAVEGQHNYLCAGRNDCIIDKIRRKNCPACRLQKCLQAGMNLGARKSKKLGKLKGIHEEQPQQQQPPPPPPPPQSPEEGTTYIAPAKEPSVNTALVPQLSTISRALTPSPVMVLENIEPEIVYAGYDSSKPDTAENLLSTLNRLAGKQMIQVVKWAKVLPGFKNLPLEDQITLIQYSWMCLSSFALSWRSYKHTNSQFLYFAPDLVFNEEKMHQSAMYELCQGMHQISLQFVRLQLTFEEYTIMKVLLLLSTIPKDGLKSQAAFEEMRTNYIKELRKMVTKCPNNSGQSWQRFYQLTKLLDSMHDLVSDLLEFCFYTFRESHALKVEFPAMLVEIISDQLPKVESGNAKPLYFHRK

Structure (SMILES)	EC50 [1] [nM]	EC50 [2] [nM]	EC50 [3] [nM]	Ki [4] [nM]	inhibition [5] [%]
C[C@]1(C(=O)Nc2nccs2)CC2c3ccccc3C1c1ccccc12	544	–	–	26.2	–
CC12CC(C)(C(=O)Nc3nncs3)C(c3ccccc31)c1ccccc12 (stereo in doubt; 18b)	3830	> 2500	152	49.7	–
CC1(C(=O)Nc2nccs2)CC2([N+](=O)[O-])c3ccccc3C1c1ccccc12 (stereo not given)	1070	> 10000	> 5000	–	–
CC12CC(C)(C(=O)Nc3nccs3)C(c3ccccc31)c1ccccc12 (stereo in doubt; 17a)	–	–	–	–	49
CN(C(=O)C1(C)CC2c3ccccc3C1c1ccccc12)c1nccs1 (stereo not given)	1240	–	–	82.5	–
CC1(C(=O)Nc2nccs2)CC2(C#N)c3ccccc3C1c1ccccc12 (stereo not given)	331	> 10000	426	–	–
CC1(C(=O)Nc2nccs2)CC2(Cl)c3ccccc3C1c1ccccc12 (stereo not given)	229	322	12.3	–	–
Cc1csc(NC(=O)C2(C)CC3c4ccccc4C2c2ccccc23)n1 (stereo not given)	> 5000	–	–	8.7	–
CC12CC(C)(C(=O)Nc3nncs3)C(c3ccccc31)c1ccccc12 (single isomer, unassigned; isomer A)	–	–	–	–	53
CC1(C(=O)Nc2ncc[nH]2)CC2c3ccccc3C1c1ccccc12 (stereo not given)	> 5000	–	–	92.6	–
C[C@]1(C(=O)Nc2nccs2)CC2(C#N)c3ccccc3C1c1ccccc12	837	> 10000	> 5000	37.8	–
CC1(C(=O)Nc2nncs2)CC2c3ccccc3C1c1ccccc12 (stereo not given)	295	–	–	5.4	–
CC1(C(=O)Nc2ccc([N+](=O)[O-])cc2O)CC2c3ccccc3C1c1ccccc12 (stereo not given)	> 5000	–	–	158	–
Cc1cnc(NC(=O)C2(C)CC3c4ccccc4C2c2ccccc23)s1 (single isomer, unassigned; isomer B)	972	–	–	187	–
O=C(Nc1nccs1)C1(CCO)CC2c3ccccc3C1c1ccccc12 (stereo not given)	> 5000	–	–	303	–
CC12CC(C)(C(=O)Nc3nncs3)C(c3ccccc31)c1ccccc12 (stereo in doubt; 18)	16.9	> 10000	5.2	–	–

Continued, in another order:

EC50 [1] [nM]	EC50 [2] [nM]	EC50 [3] [nM]	Ki [4] [nM]	Structure (SMILES)	inhibition [5] [%]
119	175	9.9	–	CC1(C(=O)Nc2nccs2)CC2(Br)c3ccccc3C1c1ccccc12 (stereo not given)	–
923	–	–	22.6	Cc1nc(NC(=O)C2(C)CC3c4ccccc4C2c2ccccc23)sc1C (stereo not given)	–
1160	> 10000	> 5000	–	CC1(C(=O)Nc2nccs2)CC2c3ccccc3C1([N+](=O)[O-])c1ccccc12 (stereo not given)	–
874	> 10000	678	–	CC1(C(=O)Nc2nccs2)CC2c3ccccc3C1(C#N)c1ccccc12 (stereo not given)	–
> 2500	–	–	3.9	CCC1(C(=O)Nc2nccs2)CC2c3ccccc3C1c1ccccc12 (stereo not given)	–
800	> 10000	> 5000	67.8	CC12CC(C)(C(=O)Nc3nccs3)C(c3ccccc31)c1ccccc12 (single isomer, unassigned; isomer B)	–
610	–	–	12.7	Cc1cnc(NC(=O)C2(C)CC3c4ccccc4C2c2ccccc23)s1 (stereo in doubt; 3)	–
14.7	121	8.3	–	CC12CC(C)(C(=O)Nc3nccs3)C(c3ccccc31)c1ccccc12 (stereo in doubt; 17)	–
